Measured values as given in patent US11826399B2, “Chlorotoxin agents and uses thereof” (Eisai Inc., priority 2017, dated 2023).
Where “and” joins values, the source holds several entries; their conditions need not be identical. Equal values may be shown once.

Experiment: Plasma and tissue distribution of Cryptophycin Payload and Cryptophycin Metabolite 1 after Cryptophycin Payload alone or with CTX in PC-3 xenograft nude mice (LC-MS/MS)
Type: in vivo, mouse
Method: For the present experiment, materials, methods, drugs and model were as described in Example 21. […] Following intravenous administration, whole blood samples were collected at predetermined time points via cardiac puncture (n=3 mice per time point). Blood samples were centrifuged to obtain plasma and subsequently stored at […] or lower pending analysis. Additionally, at each time point, kidney, liver, small intestine, brain, heart, and tumor were harvested by removing entire specimen from surrounding tissues (only a portion of liver and small intestine were removed). After removal, tissues were rinsed with normal saline solution (contents of small intestine were emptied) and blotted dry with clean adsorptive tissue. Once dried, the specimens were weighed and stored at −20° C. or lower pending analysis. […] Pharmacokinetic (PK) parameters were calculated. Mean plasma and tissue concentrations were used to calculate mean PK parameters. Skin and skeletal muscle which were not assessed due to difficulty of homogenization.
Vehicle for single dose group was 10% ethanol, 5% Tween 80, 85% saline. Vehicle for combination treatment was 5% ethanol, 2.5% Tween 80, 92.5% saline.

[1] = Brain, Payload 0.4 mg/kg + CTX 16 mg/kg IV
[2] = Brain, Payload 0.4 mg/kg IV alone
[3] = Heart, Payload 0.4 mg/kg + CTX 16 mg/kg IV
[4] = Heart, Payload 0.4 mg/kg IV alone
[5] = Kidney, Payload 0.4 mg/kg + CTX 16 mg/kg IV
[6] = Kidney, Payload 0.4 mg/kg IV alone
[7] = Liver, Payload 0.4 mg/kg + CTX 16 mg/kg IV
[8] = Liver, Payload 0.4 mg/kg IV alone
[9] = Payload 0.4 mg/kg + CTX 16 mg/kg IV, 0.083 h
[10] = Payload 0.4 mg/kg + CTX 16 mg/kg IV, 0.5 h
[11] = Payload 0.4 mg/kg + CTX 16 mg/kg IV, 1 h
[12] = Payload 0.4 mg/kg + CTX 16 mg/kg IV, 2 h
[13] = Payload 0.4 mg/kg + CTX 16 mg/kg IV, 6 h
[14] = Payload 0.4 mg/kg + CTX 16 mg/kg IV, 24 h
[15] = Payload 0.4 mg/kg IV alone, 0.083 h
[16] = Payload 0.4 mg/kg IV alone, 0.5 h
[17] = Payload 0.4 mg/kg IV alone, 1 h
[18] = Payload 0.4 mg/kg IV alone, 2 h
[19] = Payload 0.4 mg/kg IV alone, 6 h
[20] = Payload 0.4 mg/kg IV alone, 24 h
[21] = Plasma, Payload 0.4 mg/kg + CTX 16 mg/kg IV
[22] = Plasma, Payload 0.4 mg/kg IV alone
[23] = Small Intestine, Payload 0.4 mg/kg + CTX 16 mg/kg IV
[24] = Small Intestine, Payload 0.4 mg/kg IV alone
[25] = Tumor, Payload 0.4 mg/kg + CTX 16 mg/kg IV
[26] = Tumor, Payload 0.4 mg/kg IV alone

CCCCNC(=O)Cc1ccccc1SSC(C)(C)CCN1CCN(Cc2ccc(C3OC3C(C)C3CC=CC(=O)NC(Cc4ccc(OC)c(Cl)c4)C(=O)NCC(C)(C)C(=O)NC(CC(C)C)C(=O)O3)cc2)CC1 (stereo not drawn) [Cryptophycin Payload]
AUC(0-t) of Cryptophycin Payload [1]: 3.69 ng·h/g
tmax of Cryptophycin Payload [1]: 4.8 min
TPI of Cryptophycin Payload (Brain, Payload 0.4 mg/kg + CTX 16 mg/kg IV, AUC0-2 h tissue/AUC0-2 h plasma): 0.0315 mL/g and 0.0315^d mL/g
AUC(0-inf) of Cryptophycin Payload [2]: 3.57 ng·h/g
AUC(0-t) of Cryptophycin Payload [2]: 3.02 ng·h/g
t1/2 of Cryptophycin Payload [2]: 56.5 min
tmax of Cryptophycin Payload [2]: 4.98 min and 4.8 min
TPI of Cryptophycin Payload (Brain, Payload 0.4 mg/kg IV alone, AUC0-2 h tissue/AUC0-2 h plasma): 0.0208 mL/g and 0.0208^d mL/g
AUC(0-inf) of Cryptophycin Payload [3]: 62.0 ng·h/g
AUC(0-t) of Cryptophycin Payload [3]: 59.2 ng·h/g
t1/2 of Cryptophycin Payload [3]: 86.4 min
tmax of Cryptophycin Payload [3]: 4.8 min
TPI of Cryptophycin Payload (Heart, Payload 0.4 mg/kg + CTX 16 mg/kg IV, AUC0-inf tissue/AUC0-inf plasma): 0.481 mL/g
AUC(0-inf) of Cryptophycin Payload [4]: 38.9 ng·h/g
AUC(0-t) of Cryptophycin Payload [4]: 36.8 ng·h/g
t1/2 of Cryptophycin Payload [4]: 103 min
tmax of Cryptophycin Payload [4]: 4.98 min and 4.8 min
TPI of Cryptophycin Payload (Heart, Payload 0.4 mg/kg IV alone, AUC0-inf tissue/AUC0-inf plasma): 0.253 mL/g
AUC(0-inf) of Cryptophycin Payload [5]: 1230 ng·h/g
AUC(0-t) of Cryptophycin Payload [5]: 1210 ng·h/g
t1/2 of Cryptophycin Payload [5]: 251 min
tmax of Cryptophycin Payload [5]: 30 min
TPI of Cryptophycin Payload (Kidney, Payload 0.4 mg/kg + CTX 16 mg/kg IV, AUC0-inf tissue/AUC0-inf plasma): 9.53 mL/g
AUC(0-inf) of Cryptophycin Payload [6]: 826 ng·h/g
AUC(0-t) of Cryptophycin Payload [6]: 804 ng·h/g
t1/2 of Cryptophycin Payload [6]: 282 min
tmax of Cryptophycin Payload [6]: 4.98 min and 4.8 min
TPI of Cryptophycin Payload (Kidney, Payload 0.4 mg/kg IV alone, AUC0-inf tissue/AUC0-inf plasma): 5.36 mL/g
AUC(0-t) of Cryptophycin Payload [7]: 15.1 ng·h/g
tmax of Cryptophycin Payload [7]: 60 min
TPI of Cryptophycin Payload (Liver, Payload 0.4 mg/kg + CTX 16 mg/kg IV, AUC0-6 h tissue/AUC0-6 h plasma): 0.118 mL/g and 0.118^c mL/g
AUC(0-t) of Cryptophycin Payload [8]: 9.65 ng·h/g
tmax of Cryptophycin Payload [8]: 4.98 min and 4.8 min
TPI of Cryptophycin Payload (Liver, Payload 0.4 mg/kg IV alone, AUC0-6 h tissue/AUC0-6 h plasma): 0.0631 mL/g and 0.0631^c mL/g
Concentration of Cryptophycin Payload, Brain, Mean [9]: 3.97 ng/g
Concentration of Cryptophycin Payload, Heart, Mean [9]: 47.3 ng/g
Concentration of Cryptophycin Payload, Kidney, Mean [9]: 389 ng/g
Concentration of Cryptophycin Payload, Liver, Mean [9]: 3.89 ng/g
Concentration of Cryptophycin Payload, Plasma, Mean [9]: 268 ng/mL
Concentration of Cryptophycin Payload, Small Intestine, Mean [9]: 19.8 ng/g
Concentration of Cryptophycin Payload, Tumor, Mean [9]: 12.5 ng/g
Concentration of Cryptophycin Payload, Brain, Mean [10]: 2.09 ng/g
Concentration of Cryptophycin Payload, Heart, Mean [10]: 41.3 ng/g
Concentration of Cryptophycin Payload, Kidney, Mean [10]: 411 ng/g
Concentration of Cryptophycin Payload, Liver, Mean [10]: 7.13 ng/g
Concentration of Cryptophycin Payload, Plasma, Mean [10]: 37.9 ng/mL
Concentration of Cryptophycin Payload, Small Intestine, Mean [10]: 13.4 ng/g
Concentration of Cryptophycin Payload, Tumor, Mean [10]: 10.3 ng/g
Concentration of Cryptophycin Payload, Brain, Mean [11]: 2.07 ng/g
Concentration of Cryptophycin Payload, Heart, Mean [11]: 18.7 ng/g
Concentration of Cryptophycin Payload, Kidney, Mean [11]: 317 ng/g
Concentration of Cryptophycin Payload, Liver, Mean [11]: 7.13 ng/g
Concentration of Cryptophycin Payload, Plasma, Mean [11]: 43.8 ng/mL
Concentration of Cryptophycin Payload, Small Intestine, Mean [11]: 15.5 ng/g
Concentration of Cryptophycin Payload, Tumor, Mean [11]: 9.46 ng/g
Concentration of Cryptophycin Payload, Brain, Mean [12]: 0.703 ng/g
Concentration of Cryptophycin Payload, Heart, Mean [12]: 6.37 ng/g
Concentration of Cryptophycin Payload, Kidney, Mean [12]: 179 ng/g
Concentration of Cryptophycin Payload, Liver, Mean [12]: 2.13 ng/g
Concentration of Cryptophycin Payload, Plasma, Mean [12]: 7.53 ng/mL
Concentration of Cryptophycin Payload, Small Intestine, Mean [12]: 5.66 ng/g
Concentration of Cryptophycin Payload, Tumor, Mean [12]: 10.1 ng/g
Concentration of Cryptophycin Payload, Brain, Mean [13]: BLQ
Concentration of Cryptophycin Payload, Heart, Mean [13]: 1.39 ng/g
Concentration of Cryptophycin Payload, Kidney, Mean [13]: 35.9 ng/g
Concentration of Cryptophycin Payload, Liver, Mean [13]: 0.632 ng/g
Concentration of Cryptophycin Payload, Plasma, Mean [13]: 0.537 ng/mL
Concentration of Cryptophycin Payload, Small Intestine, Mean [13]: 0.873 ng/g
Concentration of Cryptophycin Payload, Tumor, Mean [13]: 2.80 ng/g
Concentration of Cryptophycin Payload, Brain, Mean [14]: BLQ
Concentration of Cryptophycin Payload, Heart, Mean [14]: BLQ
Concentration of Cryptophycin Payload, Kidney, Mean [14]: 3.39 ng/g
Concentration of Cryptophycin Payload, Liver, Mean [14]: BLQ
Concentration of Cryptophycin Payload, Plasma, Mean [14]: BLQ
Concentration of Cryptophycin Payload, Small Intestine, Mean [14]: BLQ
Concentration of Cryptophycin Payload, Tumor, Mean [14]: BLQ
Concentration of Cryptophycin Payload, Brain, Mean [15]: 8.32 ng/g
Concentration of Cryptophycin Payload, Heart, Mean [15]: 63.2 ng/g
Concentration of Cryptophycin Payload, Kidney, Mean [15]: 533 ng/g
Concentration of Cryptophycin Payload, Liver, Mean [15]: 6.02 ng/g
Concentration of Cryptophycin Payload, Plasma, Mean [15]: 493 ng/mL
Concentration of Cryptophycin Payload, Small Intestine, Mean [15]: 53.3 ng/g
Concentration of Cryptophycin Payload, Tumor, Mean [15]: 11.6 ng/g
Concentration of Cryptophycin Payload, Brain, Mean [16]: 1.42 ng/g
Concentration of Cryptophycin Payload, Heart, Mean [16]: 18.9 ng/g
Concentration of Cryptophycin Payload, Kidney, Mean [16]: 320 ng/g
Concentration of Cryptophycin Payload, Liver, Mean [16]: 1.92 ng/g
Concentration of Cryptophycin Payload, Plasma, Mean [16]: 36.3 ng/mL
Concentration of Cryptophycin Payload, Small Intestine, Mean [16]: 13.6 ng/g
Concentration of Cryptophycin Payload, Tumor, Mean [16]: 4.11 ng/g
Concentration of Cryptophycin Payload, Brain, Mean [17]: 0.673 ng/g
Concentration of Cryptophycin Payload, Heart, Mean [17]: 7.91 ng/g
Concentration of Cryptophycin Payload, Kidney, Mean [17]: 158 ng/g
Concentration of Cryptophycin Payload, Liver, Mean [17]: 3.32 ng/g
Concentration of Cryptophycin Payload, Plasma, Mean [17]: 11.0 ng/mL
Concentration of Cryptophycin Payload, Small Intestine, Mean [17]: 6.55 ng/g
Concentration of Cryptophycin Payload, Tumor, Mean [17]: 2.14 ng/g
Concentration of Cryptophycin Payload, Brain, Mean [18]: 0.436 ng/g
Concentration of Cryptophycin Payload, Heart, Mean [18]: 3.28 ng/g
Concentration of Cryptophycin Payload, Kidney, Mean [18]: 93.8 ng/g
Concentration of Cryptophycin Payload, Liver, Mean [18]: 1.29 ng/g
Concentration of Cryptophycin Payload, Plasma, Mean [18]: 5.30 ng/mL
Concentration of Cryptophycin Payload, Small Intestine, Mean [18]: 6.41 ng/g
Concentration of Cryptophycin Payload, Tumor, Mean [18]: 2.41 ng/g
Concentration of Cryptophycin Payload, Brain, Mean [19]: BLQ
Concentration of Cryptophycin Payload, Heart, Mean [19]: 0.885 ng/g
Concentration of Cryptophycin Payload, Kidney, Mean [19]: 20.4 ng/g
Concentration of Cryptophycin Payload, Liver, Mean [19]: 0.948 ng/g
Concentration of Cryptophycin Payload, Plasma, Mean [19]: 0.492 ng/mL
Concentration of Cryptophycin Payload, Small Intestine, Mean [19]: 2.17 ng/g
Concentration of Cryptophycin Payload, Tumor, Mean [19]: 1.03 ng/g
Concentration of Cryptophycin Payload, Brain, Mean [20]: BLQ
Concentration of Cryptophycin Payload, Heart, Mean [20]: BLQ
Concentration of Cryptophycin Payload, Kidney, Mean [20]: 3.79 ng/g
Concentration of Cryptophycin Payload, Liver, Mean [20]: BLQ
Concentration of Cryptophycin Payload, Plasma, Mean [20]: BLQ
Concentration of Cryptophycin Payload, Small Intestine, Mean [20]: 2.31 ng/g
Concentration of Cryptophycin Payload, Tumor, Mean [20]: 0.335 ng/g
AUC(0-inf) of Cryptophycin Payload [21]: 129 ng·h/mL
AUC(0-t) of Cryptophycin Payload [21]: 128 ng·h/mL
CL of Cryptophycin Payload [21]: 51.8 mL/min/kg
Vss of Cryptophycin Payload [21]: 2.28 L/kg
t1/2 of Cryptophycin Payload [21]: 50.9 min
AUC(0-inf) of Cryptophycin Payload [22]: 154 ng·h/mL
AUC(0-t) of Cryptophycin Payload [22]: 153 ng·h/mL
CL of Cryptophycin Payload [22]: 43.3 mL/min/kg
Vss of Cryptophycin Payload [22]: 1.15 L/kg
t1/2 of Cryptophycin Payload [22]: 67.8 min
AUC(0-inf) of Cryptophycin Payload [23]: 36.4 ng·h/g
AUC(0-t) of Cryptophycin Payload [23]: 34.9 ng·h/g
t1/2 of Cryptophycin Payload [23]: 76.2 min
tmax of Cryptophycin Payload [23]: 4.8 min
TPI of Cryptophycin Payload (Small Intestine, Payload 0.4 mg/kg + CTX 16 mg/kg IV, AUC0-inf tissue/AUC0-inf plasma): 0.282 mL/g
AUC(0-t) of Cryptophycin Payload [24]: 81.6 ng·h/g
tmax of Cryptophycin Payload [24]: 4.98 min and 4.8 min
TPI of Cryptophycin Payload (Small Intestine, Payload 0.4 mg/kg IV alone, AUC0-6 h tissue/AUC0-6 h plasma): 0.268 mL/g and 0.268^c mL/g
AUC(0-t) of Cryptophycin Payload [25]: 42.7 ng·h/g
tmax of Cryptophycin Payload [25]: 4.8 min
TPI of Cryptophycin Payload (Tumor, Payload 0.4 mg/kg + CTX 16 mg/kg IV, AUC0-6 h tissue/AUC0-6 h plasma): 0.334 mL/g and 0.334^c mL/g
AUC(0-inf) of Cryptophycin Payload [26]: 28.8 ng·h/g
AUC(0-t) of Cryptophycin Payload [26]: 24.9 ng·h/g
t1/2 of Cryptophycin Payload [26]: 506 min
tmax of Cryptophycin Payload [26]: 4.98 min and 4.8 min
TPI of Cryptophycin Payload (Tumor, Payload 0.4 mg/kg IV alone, AUC0-inf tissue/AUC0-inf plasma): 0.187 mL/g
